Data taken from patent US20230220047A1, “PEPTIDES FOR TREATMENT OF SEPSIS AND CANCER” (NORWEGIAN UNIVERSITY OF SCIENCE AND TECHNOLOGY (NTNU), priority 2020, published 2023).

Columns and labels:
[1] = tested on: ANBL-6 multiple myeloma cells; assay: CellTiter-Glo cell viability assay, ANBL-6; type: cell-based
TLR9 = type: cell-based, human; settings: 15 μM, 1 h pre-treatment, CpG 2006
Description: CpG 2006 (10 μM) was used as specific TLR9 ligand. (A) Results of LDH assay on SNs from stimulated cells. (B-E) Results of qPCR analysis of cytokine expression with TaqMan probes. (F) Results of ELISA for secreted IL-113 levels. Cells were pre-treated with 15 μM peptides for 1 h, followed by addition of CpG 2006 to the cell culture media.
We then tested whether P7-Pen could alter signaling via another endosomal PRR: TLR9, which recognises specific unmethylated CpG motifs prevalent in microbial DNA. In humans, TLR9 is almost exclusively expressed in B cells and plasmacytoid dendritic cells (pDC), while in mice TLR9 is expressed more widely, including in myeloid immune cells. To test the effect of P7-Pen on signaling via human TLR9 we used a model system of THP-1 cells expressing an inducible TLR9^CHERRY construct. 48 hr after induction of TLR9 expression by doxycycline, undifferentiated THP-1 TLR9^CHERRY cells were pre-treated with control or P7-Pen peptide for 1 hr, then stimulated with the Class B CpG oligonucleotide CpG 2006 ODN (a human-specific TLR9 agonist). […] Thus, P7 peptide could also be used to inhibit the expression of selected cytokines mediated by TLR9 in human disease.

TLR4 [2] = assay: Primary human macrophages stimulated with LPS: cytokine mRNA and p38 MAPK phosphorylation; type: cell-based; settings: primary human macrophages (data not shown)
Description: Primary human macrophages (PBMC derived, differentiated in media with 10% human serum and M-CSF 20 ng/ml, 7 days) were stimulated with K12 LPS (100 ng/ml), FSL-1 (100 ng/ml) or CL075 (3 μg/ml). […] (B) qPCR for mRNA expression of IFNβ, IL-6, TNF and IL-1β, average for three biological replicates, error bars ±SD.
The effect of P7-Pen on TLR2-mediated pro-inflammatory cytokine expression was investigated.

TLR4 [3] = assay: Western blot of LPS signalling in THP-1 cells and primary human monocytes; type: cell-based
Description: Protein pellets were dissolved by heating protein pellets for 10 min at 95° C. in buffer containing 4 M urea, 1 SDS (Sigma) and NuPAGE® LDS Sample Buffer (4×) (Thermo Fisher Scientific). Otherwise, lysates were made using 1× RIPA lysis buffer (150 mM NaCl, 50 mM TrisHCl (pH 7.5), 1% Triton X100, 5 mM EDTA, protease inhibitors, phosphatase inhibitors). For Western blot analysis we used pre-cast protein gels NuPAGE™ Novex™ and iBlot Transfer Stacks iBlot Gel Transfer Device (Thermo Fisher Scientific). Proteins were transferred to the membrane by dry-blotting using iBlot® 2 NC Regular/Mini Stacks (Life Technologies) in the iBlot 2 Dry Blotting System (Life Technologies). After secondary antibody incubation, membranes were washed and incubated with HRP substrate solution (SuperSignal™ West Femto Maximum Sensitivity Substrate (Thermo Fisher Scientific)). Images were taken using Odyssey® Fc (LI-CORE). Quantification graphs were generated by the analysis of signal intensities for protein bands (protein of interest and endogenous loading control—β-tubulin from the same membrane) using Odyssey software (LI-CORE). Data were normalised to the expression levels of β-tubulin and presented as a relative fold change to the control sample.
Further, we tested the effect of P7-Pen on phosphorylation of p38 MAPK, IκBα degradation and modification of IRAK1 in human macrophages (THP-1 cells) and primary human monocytes. P7-Pen inhibited LPS-mediated phosphorylation of p38 MAPK (FIG. 24A) and inhibited IRAK1 ubiquitination/phosphorylation (visualised as band shift to higher molecular weight) in primary monocytes (FIG. 24B).

TLR8 = assay: qPCR of CL075-induced TLR8-mediated cytokine expression in primary human monocytes; type: cell-based; settings: 15 μM, CL075 1 μg/ml
Description: Cells were pre-treated with 15 μM peptides for 30 min, followed by addition of LPS (100 ng/ml) (A) or CL075 (1 μg/ml) (B) for 2 or 4 h. Each dot on the graphs corresponds to the average value for one donor, the lines show the mean values for all donors, and error bars indicate the SD.
Total RNA was isolated from the cells using Qiazol reagent #79306 from QIAGEN, and chloroform extraction followed by purification on RNeasy Mini columns with DNAse digestion (Qiagen). cDNA was prepared using the Maxima First Strand cDNA Synthesis Kit for quantitative real-time polymerase chain reaction (RT-qPCR) (Thermo Fisher Scientific) according to the manufacturer's protocol. qPCR was performed using the PerfeCTa qPCR FastMix (Quanta Biosciences) in replicates and cycled in a StepOnePlus™ Real-Time PCR cycler. The following TaqMan® Gene Expression Assays (Applied Biosystems®) were used: IFNβ (Hs01077958_s1), TNF (Hs00174128_m1), TBP (Hs00427620_m1), CXCL10 (Hs01124251_g1), IL-6 (Hs00174131_m1) and IL-1β (Hs01555410_m1), for human cells; Ifnβ (Mm00439552_s1), Tnf (Mm00443258_m1), Tbp (Mm01277042_m1) and II-1β (Mm00434228_m1), for mouse cells. […] Relative expression was calculated using Pfaffl's mathematical model (Pfaffl, Nucleic Acids Research 29(9): e45, 2001). […] Statistical significance was evaluated in GraphPad Prizm 5.03. […] The difference between the two groups was determined by two-tailed t test. […]

Substance | combination effect with melphalan at low melphalan concentrations ([1]; ANBL-6, 5 μM peptide) | cytotoxic effect of combination with melphalan relative to peptide or melphalan alone ([1]; ANBL-6, 5 μM peptide plus melphalan 8-20 μM, 48 h) | TLR9-mediated IFNβ and CXCL10 expression (TLR9) | TLR9-mediated expression of TNF and IL-1β (TLR9) | TLR4-mediated expression of TNF, IL-6 and IL-1β mRNA (TLR4 [2]) | LPS-mediated phosphorylation of p38 MAPK (TLR4 [3]; THP-1 cells) | IRAK1 ubiquitination/phosphorylation (TLR4 [3]; primary monocytes, LPS) | CL075-induced TLR8-mediated IFNβ mRNA expression (TLR8) | expression of proinflammatory cytokines (TLR8)
Ac-ITVAASVTLTGRQIKIWFQNRRMKWKK-NH2 [Peptide P7-A4-Pen] | synergistic effect | much-enhanced cytotoxic effect |  |  |  |  |  |  | 
Ac-ITVYASVTLTGRQIKIWFQNRRMKWKK-NH2 [Peptide P7-Pen] |  |  | strongly inhibited | to some extent inhibited | totally abrogated | inhibited | inhibited | inhibited | no significant effect
